For orientation: pIC50 means the negative decadic logarithm of the IC50, by convention in mol/L. What is called IC50 is the concentration at which inhibition is half-maximal. A high value points to a need for much substance.

The subject of data set [1] is HepG2 cells. The conditions noted are these: read-out: IC50 (cytotoxicity in HepG2 cells); conventional oximes; cited from earlier work.
The test system of data set [2] is HepG2 cells. In words: Intracellular RONS detection with DCFH-DA fluorescent probe. Conditions: IC50 concentration. Type of data set: cell-based, human. How it is done:
(§1) Two different fluorescent dyes, i.e., 2,7-dichlorodihydrofluorescein diacetate (DCFH-DA, Cayman Chemicals Company, Ann Arbor, MI) and dihydroethidium (DHE, Sigma-Aldrich, St. Louis, MO) were utilized for the determination of intracellular levels of RONS after 1, 4, and 24 h of incubation with tested oxime reactivators or TBHP (positive control). Cells incubated with oxime-free DMEM represented untreated control. After the incubation, the experimental medium was removed and replaced with a solution of DCFH-DA or DHE at concentrations of 20 and 5 μmol/L, respectively. The cells were subsequently incubated at 37 °C in a CO2 incubator for 45 min. Afterward, the fluorescence intensity of each well was measured using a Spark multimode microplate reader at an excitation wavelength of 485 nm for DCFH-DA or 528 nm for the DHE probe and an emission wavelength of 535 or 590 nm, respectively. Each experiment was carried out in triplicate and repeated three independent times.
(§2) The toxicological indices IC50 were calculated from control-subtracted triplicates using nonlinear regression (four parameters) using GraphPad Prism 9 software version 9.3.0 (GraphPad Software Inc., San Diego, CA). One-way analysis of variance (ANOVA) followed by Dunnetʼs multiple comparison test was used for RONS, MDA, NP-SH, and NP-SS-NP statistical analysis by GraphPad Prism 9 software, version 9.3.0. Data are expressed as means ± standard deviation (SD) of three independent measurements (n = 3). Significant differences between oxime-treated and untreated control groups (p ≤ 0.05) were marked by an asterisk (*).

The test system of data set [3] is HepG2 cells. Put plainly: Flow cytometric detection of cell death (Annexin V & Dead Cell Assay). It counts as cell-based, human. The conditions noted are these: IC50 concentration. From the text: 2. Flow cytometric detection of cell death
The microcapillary flow cytometry (Muse™ Cell Analyzer, Luminex, Austin, TX) was used to determine cell death.
This method is based on detecting externalization of phosphatidylserine on the surface of cells undergoing apoptosis.
The technique allows quantitative analysis of non-apoptotic, early apoptotic, late apoptotic, and necrotic cells. The reagent mixture also contains the membrane non-permeable dye 7-aminoactinomycin D. This component distinguishes necrotic and late apoptotic cells from the live and early apoptotic cells. The measurement of cell death was carried out according to manufacturer instructions after 1, 4, and 24 h incubation with tested oxime reactivators and with oxime-free medium as an untreated control. During the first day of the experiment, cells were seeded into a 24-well plate (TPP) with a density of […]. After the incubation, cells from each well were collected into the polystyrene tube (TPP) and centrifuged for 5 min at 1000 × g at room temperature. The supernatant was discarded. The cell suspensions […]
were prepared in fresh medium DMEM. Afterward 100 μL of cell suspension were mixed with the 100 μL of Muse™ Annexin V & Dead Cell Assay reagent, and the samples were incubated for 20 min at room temperature in the dark.
Per measurement, 5000 cells were analyzed. Each experiment was performed in triplicates and repeated three independent times. The concentration of K048, K074, K075, and K203 oximes and TBHP (positive control) used in […]
After 1 h of incubation (Figure S-1.) with tested oxime reactivators and TBHP as the positive control, the percentage […]
A significant change in the percentage of
The amount of early apoptotic cells
. On the other hand, the percentage of late apoptotic cells was […]
control cells. The count of late apoptotic cells enlarged by 7.74, 4.71 , 4.17, 4.13, and 3.20 %, respectively. The statistical differences were also found in the percentage of necrotic cells in this time interval. The highest increment […]
K048, K074, K075, and K203 groups when compared with control.
K075, and K203 treated groups, respectively, when compared with control. Finally, the percentage of necrotic cells […]
Fig. S-1 The percentage of intact (white column), early (light grey column), late apoptotic (dark grey column), and necrotic HepG2 cells (black column) determined using microcapillary flow cytometry after 1 h, 4 h and 24 h treatment with oxime acetylcholinesterase reactivators or TBHP (positive control). Control represents the cells incubated with an oxime-free culture medium. One-way analysis of variance (ANOVA) followed by Dunnetʼs multiple comparison test was used for statistical analysis by GraphPad Prism 9 software version 9.3.0. Data are expressed as means ± standard deviation (SD) of three independent measurements (n = 3). Significant differences between oxime-treated and untreated control groups (p ≤ 0.05) and marked by asterisk (*).
3. Stability of oximes in DMEM medium at 37 °C over 24 hours
The stability of oximes K048, K074, K075, and K203 in DMEM medium, with concentrations corresponding to their […]
UV, following the chromatographic conditions described by Vanova et al. (2021)13. The results over the tested time […]
Fig. S-2 Data are expressed in percentage as means ± standard deviation (SD) of three independent measurements […]
(In general: In flow cytometry, cells or beads pass a laser one at a time.)

The subject of data set [4] is HepG2 cells. Put plainly: Total intracellular MDA by LC-MS/MS. It counts as cell-based, human. Conditions: IC50 concentration.
Data set [5] in a line: Colorimetric MTT cell viability assay, 24 h. The conditions noted are these: human, HepG2 cells, IC50 (cytotoxicity, MTT assay), 24 h incubation. In general terms: Formazan colour is commonly taken as a measure of viable cells.
Data set [6] relates to HepG2 cells. Put plainly: Intracellular RONS detection with DHE fluorescent probe. The conditions noted are these: IC50 concentration; for increase of free radicals/RONS (DHE probe) vs negative control: 1 h incubation. Type of data set: cell-based, human. How it is done:
as §1, §2

Data set [7] concerns HepG2 cells. Put plainly: Intracellular nonprotein thiols (NP-SH) by HPLC-UV. Conditions: IC50 concentration. Type of data set: cell-based, human. How it is done:
(§3) The culture medium was removed from a 25 cm^2 culture flask on the day of the experiment, and cells were washed twice with 3 mL of phosphate-buffered saline (PBS; GE Healthcare Life Sciences, South Logan, UT). Subsequently, 3 mL of a plain DMEM medium (negative control) and a DMEM medium containing TBHP (positive control) or individual oximes were added to each flask, and cells were incubated for 1, 4, and 24 h. The concentration of individual oxime and TBHP in the DMEM medium corresponded to the IC50 value. After incubation, the experimental medium was removed, and cells were washed with 3 mL of PBS and harvested by scraping. The resulting suspension was centrifuged at 220g and 21 °C for 5 min (Universal 320R centrifuge, Hettich, Tuttlingen, Germany). The supernatant was removed and dried cell pellets were stored at −80 °C. Each experiment was carried out in three independent replicates.
(§4) The cell pellets were thawed at room temperature, resuspended in 500 μL of ultrapure water (Millipore Purification System, Merck, Millipore, Darmstadt, Germany), and sonicated for 2 min (2 s cycle, amplitude 20%) in a Q500 homogenizer (QSONICA Sonicators, Newton). Then, the homogenate was divided into three parts: 250 μL for the determination of malondialdehyde (MDA), 100 μL for each determination of nonprotein thiols (NP-SH) and disulfides (NP-SS-NP), and 10 μL for the Bradford protein assay.
(§5) The HepG2 cell homogenate obtained, as described in Section 2.6, was processed for the determination of intracellular NP-SH and NP-SS-NP, according to Muckova et al.[11] The samples were analyzed using the HPLC system described above equipped with an SPD 20-AV Prominence UV/vis detector. The analysis was carried out on a Phenomenex LUNA C18 column (150 mm × 3 mm, 3 μm, 100 Å) protected with a Security Cartridge (4 mm × 2 mm, Phenomenex, Torrance) at 30 °C and a constant flow rate of 0.330 mL/using the mobile phase consisting of 0.9% aqueous FA (A) and ACN (B) under gradient conditions: 0–1 min 12% B, 1.1–2 min 12–55% B, 2–7 min 55% B, 7.1 min 55% B, and 7.1–10 min 12% B. The detector was set at 326 nm and the sample injection volume was 20 μL.

For data set [8], the system named is HepG2 cells. In words: Intracellular nonprotein disulfides (NP-SS-NP) by HPLC-UV. The conditions noted are these: IC50 concentration. It counts as cell-based, human. How it is done: as §3, §4, §5
The subject of data set [9] is HepG2 cells. Conditions: from 15 min after simultaneous incubation with TBHP (IC50 concentration); oximes about 10-fold below IC50; cited from earlier work.
In data set [10] the test system is HepG2 cells. In words: Colorimetric MTT cell viability assay, 24 h. The conditions noted are these: read-out: IC50 (cytotoxicity, MTT assay), 24 h incubation.
The test system of data set [11] is rat plasma. The conditions noted are these: in vivo, 23 mg/kg; cited from earlier work.

pIC50: −log10 of the molar value. Where two headings read alike, the source gives them in different places.

Turning to `NC(=O)c1cc[n+](COC[n+]2ccccc2/C=N/O)cc1` [HI-6, asoxime], the pIC50 in data set [1] was about 2.52.
Take `CC(C)(C)OO` [TBHP, tert-butyl hydroperoxide, reference compound]: the “increase of RONS (DCFH-DA probe) vs negative control” value in data set [2] (1 h incubation) worked out at 16.7%. The “decrease of RONS (DCFH-DA probe) vs negative control” value in [2] (24 h incubation) was determined as 47.6%. In addition, the “decrease in percentage of intact (live) cells vs control” value in data set [3] (1 h) was about 11.6%. Also, the “increase in late apoptotic cells vs control” value was found to be 7.74% in data set [3] (1 h), 9.79% in data set [3] (4 h) and 31.6% in [3] (24 h). Also, the entries for the “increase in necrotic cells vs control” value in data set [3] (1 h) and in [3] (24 h) were 3.24% and 3.66%, respectively. For the same molecule, in data set [3] (4 h), the “decrease in percentage of live cells vs control” value is reported as 14.6%. Besides, the “increase in early apoptotic cells vs control” value in data set [3] (4 h) is 1.02%; in data set [3] (24 h), 7.42%. Besides, the “increase in necrotic cell population vs control” value in data set [3] (4 h) turned out to be 3.77%. In data set [3] (24 h), the “decrease in percentage of intact cells vs control” value came to 42.7%. In addition, the “increase of MDA levels vs untreated control” value in data set [4] (4 h incubation) was determined as 36.1%; in data set [4] (24 h exposure) it was 96.6%. In addition, the IC50 at 24 h in [5] amounted to 130 µM. Moreover, in [6], the “increase of free radicals/RONS (DHE probe) vs negative control” value was found to be 30.7%. The “increase of RONS (DHE probe) vs negative control” value in [6] (4 h incubation) was 111%. Further, the “decrease in NP-SH levels vs untreated control” value is given as 24.6% in data set [7] (1 h), 45.0% in data set [7] (4 h) and 53.1% in data set [7] (24 h). In addition, the entries for the “increase in NP-SS-NP levels vs untreated control” value in data set [8] (1 h), in data set [8] (4 h) and in data set [8] (24 h) were 69.6%, 119% and 166%, respectively.
On to `NC(=O)c1cc[n+](C/C=C/C[n+]2ccc(C=NO)cc2)cc1.[Br-].[Br-]` [K203, 4-carbamoyl-1-((2E)-4-(4-((hydroxyimino)methyl)pyridin-1-ium-1-yl)but-2-en-1-yl)pyridin-1-ium dibromide], for which the “increase of RONS (DCFH-DA probe) vs negative control” value in data set [2] (1 h incubation) is reported as 39.2%; in data set [2] (4 h incubation) it was 39.2%; in data set [2] (24 h incubation), 22.8%. Moreover, the “decrease in percentage of intact (live) cells vs control” value in [3] (1 h) is listed as about 8.43%. Further, the “increase in early apoptotic cells vs control” value in data set [3] (1 h) is recorded as about 1.51%; in [3] (24 h) it was 13.3%. For the same molecule, the “increase in late apoptotic cells vs control” value was 4.13% in [3] (1 h), 4.24% in [3] (4 h) and 32.9% in data set [3] (24 h). The “decrease in percentage of live cells vs control” value in [3] (4 h) is 8.8%. Besides, the “increase in necrotic cell population vs control” value in data set [3] (4 h) is 1.74%. Besides, the “decrease in percentage of intact cells vs control” value in data set [3] (24 h) came to 46.6%. In data set [4] (within the 24 h time frame), the “resulting MDA levels (in words)” value is “insignificant”. Besides, the “reduction of ROS production” value in data set [9] was 98%. The pIC50 in data set [10] was 2.69. In data set [6], the “increase of free radicals/RONS (DHE probe) vs negative control” value was 8.5%. In addition, in [6] (24 h incubation), the “increase of RONS (DHE probe) vs negative control” value stood at 22.1%. Also, the “decrease in NP-SH levels vs untreated control” value in [7] (1 h) was found to be 17.4%; in [7] (24 h) it was 12.1%. For the same molecule, the “low-molecular-weight antioxidants (LMWAs) in plasma” value in data set [11] is on record as “increase”. Besides, the “resulting NP-SS-NP levels (in words)” value in data set [8] (within the 24 h time frame) was “insignificant”.
For `O/N=C/c1cc[n+](COC[n+]2ccc(/C=N/O)cc2)cc1` [LüH-6, obidoxime], the pIC50 in data set [1] was about 2.40.
Take `O/N=C/c1cc[n+](C[n+]2ccc(/C=N/O)cc2)cc1` [MMB-4, methoxime]: the pIC50 in data set [1] was about 3.00.
For `N[C@@H](CCC(=O)N[C@@H](CS)C(=O)NCC(=O)O)C(=O)O` [reduced glutathione, glutathione, reference compound], the “reduction of ROS production” value in data set [9] is 87%.
Consider `O/N=C/c1cc[n+](CCC[n+]2ccc(/C=N/O)cc2)cc1` [TMB-4, trimedoxime], for which, in data set [1], the pIC50 was about 1.66.

The values above are taken from publication PMC10731658 (Chemical Research in Toxicology, 2023).
